{
  "source": "patent US20060002922A1",
  "about": "“Method for preventing or treating obesity by modulating the activities of the pentose phosphate patway” (Minkon Biotechnology, Inc., priority 2004, published 2006)",
  "key": {"tumors in animals": {"tested_on": "tumors in animals", "conditions": "100-400 mg/kg of OT; cited from earlier work"}, "[1]": {"tested_on": "C57BL/6 mice fed with D12492", "assay": "Diet-induced obesity in C57BL/6 mice fed high fat diet D12492, oral OT", "assay_type": "in vivo", "experimental": "D12492 is a very high fat containing diet (with 60 kcal % fat), and has been widely used to induce obesity in rodents.\nA dose of 10-20 mg/kg/day of OT was administered orally to C57BL/6 mice fed with D12492. […] In contrast, the control mice developed obesity.\n4 groups of C57BL/6 mice (5 mice each group) were used to test the dosage dependence of oxythiamine on weight control. The negative control was fed a regular diet, and positive group was fed a high fat diet only. Test groups were fed high fat diet and each orally administered with OT at a concentration of 2 mg/kg/day or 10 mg/kg/day."}, "[2]": {"tested_on": "normal as well as fatty mice", "assay": "Higher dosage of OT: weight loss in normal and fatty mice", "assay_type": "in vivo", "source_text": "This is consistent with the result obtained from the published result of TKT haplo-insufficiency mice."}, "[3]": {"tested_on": "liver, heart and kidney of mice hosting Ehrlich's tumor", "conditions": "400 mg/kg/day of OT; cited from earlier work"}},
  "data": [
    {"molecule": "Cc1ncc(C[n+]2csc(CCO)c2C)c(=O)[nH]1", "note": "[OT, Oxythiamine]", "values": [
      {"measurement": "treatment of tumors in animals", "setting": "tumors in animals", "value": "successfully used to treat tumors"},
      {"measurement": "development of diet-induced obesity", "setting": "[1]; 10-20 mg/kg/day orally, C57BL/6 mice fed D12492, control mice developed obesity", "value": "Diet-induced obesity was not developed"},
      {"measurement": "pathological studies of OT treated mice", "setting": "[1]; FIG. 1 study, high fat diet plus OT", "value": "near normal"},
      {"measurement": "progression of obesity development", "setting": "[1]; OT as low as 2 mg/kg/day", "value": "reduce the progression of obesity development significantly"},
      {"measurement": "dosage dependence of prevention of weight gain", "setting": "[1]; mice fed D12492, test groups 2 or 10 mg/kg/day orally", "value": "dosage dependent effects on preventing weight gain"},
      {"measurement": "growth rate compared to same age mice fed a standard diet", "setting": "[1]; mice fed D12492 plus OT", "value": "normal growth rate"},
      {"measurement": "effect on body weight", "setting": "[2]; 180 mg/kg/day, normal as well as fatty mice", "value": "strong effect of weight loss"},
      {"measurement": "fat mass", "setting": "[2]; OT fed mice", "value": "Preferential reduction of fat mass"},
      {"measurement": "histotoxicity (signs of toxicity in liver, heart and kidney vs controls)", "setting": "[3]", "value": "No signs of toxicity were observed"}
    ]}
  ]
}
